# In ChEMBL document CHEMBL1130535, “Synthesis of triphosphonate analogues of farnesyl pyrophosphate. Inhibitors of squalene synthase and protein:farnesyl transferase” (Bioorg Med Chem Lett, 1997):
# What was measured:
# [1] = target: Protein farnesyltransferase (Homo sapiens, UniProt P49354+P49356); test: Inhibition of Farnesyl Transferase; format: protein-complex assay
# Squalene synthase = target: T1, Squalene synthase (Homo sapiens, UniProt P37268); test: Inhibition of Squalene Synthase
# T1 sequence (P37268 whole entry): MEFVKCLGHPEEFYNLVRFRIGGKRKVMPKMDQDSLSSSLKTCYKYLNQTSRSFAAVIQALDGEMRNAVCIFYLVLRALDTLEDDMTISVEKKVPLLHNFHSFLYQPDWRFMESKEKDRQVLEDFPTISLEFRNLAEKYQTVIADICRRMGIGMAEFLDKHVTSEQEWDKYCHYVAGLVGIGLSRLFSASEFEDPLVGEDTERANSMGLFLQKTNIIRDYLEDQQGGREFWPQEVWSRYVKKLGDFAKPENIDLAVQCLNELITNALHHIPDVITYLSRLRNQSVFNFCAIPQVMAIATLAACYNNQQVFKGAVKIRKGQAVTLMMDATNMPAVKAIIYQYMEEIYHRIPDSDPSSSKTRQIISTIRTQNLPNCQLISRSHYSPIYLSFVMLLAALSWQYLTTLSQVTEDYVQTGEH
SMILES,IC50 [1] [µM],IC50 (Squalene synthase) [µM]
CC(C)=CCC/C(C)=C/CC/C(C)=C/CC(C/C=C(\C)CC/C=C(\C)CCC=C(C)C)(P(=O)(O)O)P(=O)(O)CP(=O)(O)O (stereo not given),3.99,23.3
CC(C)=CCC/C(C)=C/CC/C(C)=C/CC1(C/C=C(\C)CC/C=C(\C)CCC=C(C)C)P(=O)(O)CP(=O)(O)OP1(=O)O (stereo not given),56.2,> 50
CC(C)=CCC/C(C)=C/CC/C(C)=C/CC(P(=O)(O)O)P(=O)(O)O,13.5,0.018
CC(C)=CCC/C(C)=C/CC/C(C)=C/CC1P(=O)(O)CP(=O)(O)OP1(=O)O (stereo not given),34.2,46.4
CC(C)=CCC/C(C)=C/CC/C(C)=C/CC(P(=O)(O)O)P(=O)(O)CP(=O)(O)O (stereo not given),1.81,1.1
